# Data: US11446269B2, “Methods of reducing or preventing oxidation of small dense LDL or membrane polyunsaturated fatty acids” (Amarin Pharmaceuticals Ireland Limited, priority 2014, dated 2022)
# What was measured:
# sdLDL = assay: Copper-induced sdLDL oxidation (Example 12); type: biochemical, human; conditions: 10.0 μM, copper-induced oxidation 1 hour, vs vehicle
# [1] = Lipid hydroperoxide (LOOH) formation in cholesterol-enriched DLPC model membranes under autoxidation (Example 3); type: biochemical; conditions: EPA:lipid 1:30, C/P 0.6:1, autoxidation 37° C. 72 hours, vs untreated controls
# Method: Levels of lipid hydroperoxides were also measured in cholesterol-enriched membrane prepared in the absence of EPA as a control. […] CHOD-iodide color reagent (stock) was prepared according to a procedure modified from El-Saadani et […], Goher […], Jurgens G. A spectrophotometric assay for lipid peroxides in serum lipoproteins using commercially available reagent. J. Lipid. […] Membrane samples consisting of DLPC±cholesterol were prepared as follows. Component lipids (in chloroform) were transferred to 13×100 mm test tubes and shell-dried under a steady stream of nitrogen gas while vortex mixing. The lipid was co-dried with EPA. Residual solvent was removed by drying for a minimum of 3 h under vacuum. After desiccation, each membrane sample was resuspended in diffraction buffer (0.5 mM HEPES, 154 mM NaCl, pH 7.3) to yield a final phospholipid concentration of 1.0 mg/mL. Multilamellar vesicles (MLV) were formed by vortex mixing for 3 minutes at ambient temperature. […] Absorbances were measured against a CHOD blank at 365 nm using a Beckman DU-640 spectrophotometer. The CHOD colorimetric assay is based on the oxidation of iodide (I^-) by lipid hydroperoxides (LOOH) and proceeds according to the following reaction scheme: […]3^- The quantity of triiodide anion (I3^-) liberated in this reaction is directly proportional to the amount of lipid hydroperoxides present in the membrane sample.
# HUVECs = assay: NO and ONOO^− release from HUVECs exposed to oxLDL, nanosensors (Example 8); type: cell-based, human; conditions: oxLDL 20 min, then agent 1 hour (EPA 10 μM, ATM 1.0 μM)
# Method: Human umbilical vein endothelial cells (HUVECs) were isolated into primary cultures from female donors by Clonetics (San Diego, Calif.) and purchased as proliferating cells. All cell culture donors were healthy, with no pregnancy or prenatal complications. […] The confluent cells (4 to 5×10^5 cells/35 mm dish) were placed with minimum essential medium containing 3 mM L-arginine and 0.1 mM BH4 [(6R)-5,6,7,8-tetrahydrobiopterin]. Before experimental use, the cells (from second or third passage) were rinsed twice with Tyrode-HEPES buffer with 1.8 mM CaCl2.
# The omega-3 fatty acids (O3FAs) cis-5,8,11,14,17-eicosapentaenoic acid (EPA) and docosahexaenoic acid (DHA) were purchased from Sigma-Aldrich (St. Louis, Mo.) and prepared initially at 11 mM in redistilled ethanol. Primary and secondary O3FA stock solutions were prepared and stored under argon at −20° C. […]
# Oxidation was monitored by the use of measurements of TBARS. […] TBARS concentration was determined as malondialdehyde (MDA) equivalents with the use of an MDA standard curve. […]
# The amperometric method (with a response time of 0.1 ms) provides a quantitative signal (current) that is directly proportional to changes (from basal levels) in NO or ONOO^− concentration. […] Basal NO or ONOO^− levels were measured by differential pulse voltammetry in separate experiments. […]
SMILES,reduction of sdLDL oxidation (sdLDL) [%],reduction of LOOH levels [1],NO/ONOO^− Ratio (HUVECs),NO release (HUVECs; unit printed in b302 only) [nM]
"CC/C=C\C/C=C\C/C=C\C/C=C\C/C=C\CCCC(=O)O [EPA, cis-5,8,11,14,17-eicosapentaenoic acid]",> 90,greater than 90%,–,–
"O=C(O)c1cccnc1 [Niacin, nicotinic acid]",–,–,2.00 ± 0.52,431 ± 100
